Results on six compounds are retold here after article PMC6014686, “Thienopyrimidinone Based Sirtuin-2 (SIRT2)-Selective Inhibitors Bind in the Ligand Induced Selectivity Pocket” (Journal of Medicinal Chemistry, 2017).

For orientation: IC50 means the concentration that inhibits the measured activity by half.

“Also recorded” adds a separate entry of the source. Like-named read-outs stand apart in the source and are kept apart here.

For assay [1], the system named is acetylated (lysine-40) α-tubulin in MCF-7 cells. The assay is described as follows: Tubulin acetylation assay, Western blot in MCF-7 cells with TSA. The following applies: 0-50 μM for 24 h with 50 nM TSA, N = 3. On the technique in general: In western blotting, separated proteins are transferred to a membrane and probed.
Assay [2] deals with T1, SIRT1 (Homo sapiens, UniProt Q96EB6).
T1 sequence (Q96EB6 1-747): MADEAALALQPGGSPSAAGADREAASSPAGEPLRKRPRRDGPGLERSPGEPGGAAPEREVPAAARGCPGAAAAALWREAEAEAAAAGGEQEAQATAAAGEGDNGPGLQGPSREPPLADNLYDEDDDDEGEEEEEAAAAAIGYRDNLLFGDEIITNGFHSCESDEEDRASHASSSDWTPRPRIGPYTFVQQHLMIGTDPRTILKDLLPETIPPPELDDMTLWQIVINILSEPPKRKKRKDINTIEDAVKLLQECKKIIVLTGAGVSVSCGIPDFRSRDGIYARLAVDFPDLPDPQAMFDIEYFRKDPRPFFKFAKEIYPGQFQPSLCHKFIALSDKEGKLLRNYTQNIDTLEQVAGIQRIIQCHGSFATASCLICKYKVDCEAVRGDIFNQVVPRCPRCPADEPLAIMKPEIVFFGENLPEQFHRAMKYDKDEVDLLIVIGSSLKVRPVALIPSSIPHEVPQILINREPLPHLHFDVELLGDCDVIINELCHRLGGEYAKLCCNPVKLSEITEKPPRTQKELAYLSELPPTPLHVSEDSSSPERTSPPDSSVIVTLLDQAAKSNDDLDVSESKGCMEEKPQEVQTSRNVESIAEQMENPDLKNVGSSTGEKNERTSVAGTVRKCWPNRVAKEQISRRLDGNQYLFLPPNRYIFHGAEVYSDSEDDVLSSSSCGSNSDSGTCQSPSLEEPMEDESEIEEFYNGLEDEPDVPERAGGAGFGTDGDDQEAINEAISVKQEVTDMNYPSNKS
The assay is described as follows: SIRT1 enzymatic assay with fluorogenic p53 peptide substrate RHKK(Ac)-AMC. Type of assay: biochemical. Particulars: Table 3.

Assay [3] has as its target T2, SIRT3 (Homo sapiens, UniProt Q9NTG7).
T2 sequence (Q9NTG7 1-399): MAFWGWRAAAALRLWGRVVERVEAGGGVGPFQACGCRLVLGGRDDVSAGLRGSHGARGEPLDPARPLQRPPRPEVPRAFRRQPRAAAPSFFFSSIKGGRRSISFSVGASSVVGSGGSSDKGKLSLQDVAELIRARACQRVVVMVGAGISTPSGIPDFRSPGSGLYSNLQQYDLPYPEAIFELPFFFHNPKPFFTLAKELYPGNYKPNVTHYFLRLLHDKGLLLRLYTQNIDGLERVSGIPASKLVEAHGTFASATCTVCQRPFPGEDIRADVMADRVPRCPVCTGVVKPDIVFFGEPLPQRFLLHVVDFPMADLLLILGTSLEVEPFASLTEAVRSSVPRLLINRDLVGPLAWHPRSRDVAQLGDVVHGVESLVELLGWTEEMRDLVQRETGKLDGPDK
In words: SIRT3 enzymatic assay with fluorogenic p53 peptide substrate RHKK(Ac)-AMC. Type of assay: biochemical. The following applies: Table 3.

Assay [4] deals with SIRT1. Particulars: Figure 1, cited from earlier work; for IC50: differing in vitro assays and conditions.
A further assay concerns SIRT2. The arrangement: method as in PMID 15780941, PMID 26982234, PMID 25275824, PMID 11483616, PMID 16618762. Particulars: Figure 1; differing in vitro assays and conditions; cited from earlier work.
The next assay relates to SIRT6. The arrangement: method as in PMID 25672491. Particulars: Figure 1; cited from earlier work.
For assay [5], the system named is Parkinsonian neuronal cell death model. On the set-up: method as in PMID 25395356. The following applies: cited from earlier work.
Assay [6] concerns the target T2, SIRT3. On the set-up: method as in PMID 25395356. The following applies: reported earlier; cited from earlier work.
The target in assay [7] is T1, SIRT1. The arrangement: method as in PMID 25395356. Particulars: reported earlier; cited from earlier work.
The test system of a further assay is SIRT5. The arrangement: method as in PMID 25395356. Particulars: cited from earlier work.
In assay [8] the test system is SIRT3. The following applies: Figure 1, cited from earlier work.

On to `COc1ccc(Cn2cnc3sc4c(c3c2=O)CCC(NCc2c(C)noc2C)C4)c2ccccc12` (stereo not drawn) [29c], for which the “effect on α-tubulin acetylation level” value in assay [1] is “increased levels of α-tubulin acetylation in a dose dependent manner; also recorded: increased the α-tubulin acetylation level at 10 μM and retained consistent to 50 μM”. Besides, on SIRT1 [2], the “SIRT2 selectivity over SIRT1” value is recorded as over 200 fold. In addition, the “SIRT2 selectivity over SIRT3” value at SIRT3 [3] was about 30 fold.

In the case of `Cc1cc(C)nc(SCC(=O)Nc2ncc(Cc3cccc4ccccc34)s2)n1` [compound 8, SirReal2], the results for the IC50 in the assay with SIRT1 [4], with SIRT2 and with SIRT6 were over 100 µM, […] and over 200 µM, respectively.

For `COc1ccc2ccccc2c1Cn1cnc2sc3c(c2c1=O)CCC(NCc1cccnc1)C3` (stereo not drawn) [19a], the “effect on α-tubulin acetylation level” value in assay [1] was “showed increased acetylated α-tubulin level at 20 μM and decreased level at 50 μM”. In addition, in assay [5], the neuroprotection result was “showed neuroprotection”. Further, the SIRT2/SIRT3 selectivity at SIRT3 [6] was over 100. In addition, the SIRT2/SIRT1 selectivity at SIRT1 [7] is over 100. The IC50 in the assay with SIRT5 (Figure 1) was over 100 µM. The “selectivity for SIRT2 in comparison to SIRT5” value in the assay with SIRT5 (previous study) is listed as “more than 100”.

`CSc1ccc(CSc2cccc(C(=O)Nc3ccc(C#N)cc3)c2)cc1` [compound 5]: the “SIRT3 inhibition @ 10 μM” value in the assay on SIRT3 [8] (10 μM) was “no inhibition”. Further, the “SIRT1 inhibition @ 10 μM” value in the assay on SIRT1 [4] (10 μM) is given as 3%. The IC50 in the assay on SIRT2 is 2.4 µM.

`O=C(Nc1cnccc1Br)c1cccc(-c2ccc3ccccc3c2)c1` [compound 4]: the figures for the IC50 in the assay on SIRT3 [8] (differing in vitro assays), in the assay on SIRT1 [4] and in the assay with SIRT2 were over 100 µM, over 100 µM and 0.6 µM, respectively.

Consider `N#Cc1ccc(CNC2CCc3c(sc4ncn(Cc5cccc6cccnc56)c(=O)c34)C2)cc1` (stereo not drawn) [15e, 4-(((4-Oxo-3-(quinolin-8-ylmethyl)-3,4,5,6,7,8-hexahydrobenzo[4,5]thieno[2,3-d]pyrimidin-7-yl)amino)methyl)benzonitrile], for which the “SIRT2 selectivity over SIRT1” value on SIRT1 [2] is on record as “more than 100 fold”. Also, the “SIRT2 selectivity over SIRT3” value at SIRT3 [3] is recorded as “more than 100 fold”. Also, the SIRT2/SIRT3 selectivity at SIRT3 [3] (ratio of IC50 values) was over 256.
